Assay results as given in patent US8101632B2, “5-furopyridinone substituted indazoles” (Albany Molecular Research, Inc., priority 2007, dated 2012).
Counter-ions that a name gives are not always drawn.

| Structure (SMILES) | melting point |
| --- | --- |
| Cl.O=c1c2cc(-c3ccc(F)cc3)oc2ccn1-c1ccc2c(cnn2CCN2CCCC2)c1 | 218 to 220 °C |
| Cl.O=c1c2cc(-c3ccc(F)cc3Cl)oc2ccn1-c1ccc2c(cnn2CCN2CCCC2)c1 | 140 to 142 °C |
| Cl.O=c1c2cc(-c3ccc(F)cc3F)oc2ccn1-c1ccc2c(cnn2CCN2CCCC2)c1 | 256 to 258 °C |
| Cl.O=c1c2cc(-c3ccc(Cl)cc3)oc2ccn1-c1ccc2c(cnn2CCN2CCNCC2)c1 | 298 to 300 °C (dec.) |
| O=c1c2cc(-c3cccnc3)oc2ccn1-c1ccc2c(cnn2CCN2CCCC2)c1 (as salt: hydrochloride) [Example 22, 2(Pyridin-3-yl)-5-(1-(2-(pyrrolidin-1-yl)ethyl)-1H-indazol-5-yl)furo[3,2-c]pyridin-4(5H)-one dihydrochloride] | 188 to 190 °C |
| Cl.O=c1c2cc(-c3ccc(C(F)(F)F)cc3)oc2ccn1-c1ccc2c(cnn2CCN2CCCC2)c1 | 252 to 254 °C |
| Cl.O=c1c2cc(-c3ccccc3F)oc2ccn1-c1ccc2c(cnn2CCN2CCCC2)c1 | 264 to 266 °C |
| Cc1ccc(-c2cc3c(=O)n(-c4ccc5c(cnn5CCN5CCCC5)c4)ccc3o2)c(F)c1.Cl | 268 to 270 °C |
| Cl.N#Cc1cc(F)ccc1-c1cc2c(=O)n(-c3ccc4c(cnn4CCN4CCCC4)c3)ccc2o1 | 120 to 122 °C |
| Cc1ccc(-c2cc3c(=O)n(-c4ccc5c(cnn5CCN5CCCC5)c4)ccc3o2)cc1.Cl | 262 to 264 °C |
| O=c1c2cc(-c3ncccn3)oc2ccn1-c1ccc2c(cnn2CCN2CCCC2)c1 (as salt: hydrochloride) [Example 26, 2-(Pyrimidin-2-yl)-5-(1-(2-(pyrrolidin-1-yl)ethyl)-1H-indazol-5-yl)furo[3,2-c]pyridin-4(5H)-one Dihydrochloride] | 272 to 274 °C |
| Cl.O=c1c2cc(-c3ccc(Cl)cc3)oc2ccn1-c1ccc2c(cnn2CCN2CCOCC2)c1 | 260 to 268 °C (dec.) |
| Cl.O=c1c2cc(-c3ccc(Cl)cc3)oc2ccn1-c1ccc2c(cnn2CCN2CC[C@@H](O)C2)c1 | 242 to 246 °C (dec.) |

Next, values leading:

| melting point | Structure (SMILES) |
| --- | --- |
| 256 to 258 °C | Cl.O=c1c2cc(-c3ccc(Cl)cc3F)oc2ccn1-c1ccc2c(cnn2CCN2CCCC2)c1 |
| 50 to 52 °C | O=c1c2cc(-c3ccccn3)oc2ccn1-c1ccc2c(cnn2CCN2CCCC2)c1 (as salt: hydrochloride) |
| 282 to 284 °C | Cc1ccc(-c2cc3c(=O)n(-c4ccc5c(cnn5CCN5CCCC5)c4)ccc3o2)nn1.Cl |
| 240 to 242 °C | COc1cc(Cl)ccc1-c1cc2c(=O)n(-c3ccc4c(cnn4CCN4CCCC4)c3)ccc2o1.Cl |
| 258 to 260 °C | Cl.O=c1c2cc(-c3ccc(Cl)cc3Cl)oc2ccn1-c1ccc2c(cnn2CCN2CCCC2)c1 |
| 102 to 104 °C | Cl.O=c1c2cc(-c3ccccc3Cl)oc2ccn1-c1ccc2c(cnn2CCN2CCCC2)c1 |
| 268 to 270 °C | O=c1c2cc(-c3ccc(Cl)cn3)oc2ccn1-c1ccc2c(cnn2CCN2CCCC2)c1 (as salt: hydrochloride) [Example 17, 2-(5-Chloropyridin-2-yl)-5-(1-(2-(pyrrolidin-1-yl)ethyl)-1H-indazol-5-yl)furo[3,2-c]pyridin-4(5H)-one dihydrochloride] |
| 266 to 268 °C | O=c1c2cc(-c3ccc(F)cn3)oc2ccn1-c1ccc2c(cnn2CCN2CCCC2)c1 (as salt: hydrochloride) [Example 23, 2-(5-Fluoropyridin-2-yl)-5-(1-(2-(pyrrolidin-1-yl)ethyl)-1H-indazol-5-yl)furo[3,2-c]pyridin-4(5H)-one dihydrochloride] |
